Data from patent publication US20170320870A1 (Medical Research Council Technology, priority 2009, published 2017).

Columns and labels:
Test in all cases: Kinase selectivity: percentage inhibition of each specific kinase at 1 μM inhibitor concentration
Format in all cases: biochemical
[1] = target: each specific kinase (kinase selectivity panel, Table 2) (Homo sapiens, UniProt Q14012); settings: CAMK1
Method: (§1) Values are expressed as percentage inhibition of the each specific kinase at 1 μM inhibitor concentration.

[2] = target: each specific kinase (kinase selectivity panel, Table 2) (Homo sapiens, UniProt Q96SB4); settings: SRPK1
Method: as §1

[3] = target: each specific kinase (kinase selectivity panel, Table 2) (Homo sapiens, UniProt P27448); settings: MARK3
Method: as §1

[4] = target: each specific kinase (kinase selectivity panel, Table 2) (Homo sapiens, UniProt P41240); settings: CSK
Method: as §1

[5] = target: each specific kinase (kinase selectivity panel, Table 2) (Homo sapiens, UniProt P80192); settings: MLK1
Method: as §1

[6] = target: each specific kinase (kinase selectivity panel, Table 2) (Homo sapiens, UniProt P45983); settings: JNK1
Method: as §1

[7] = target: each specific kinase (kinase selectivity panel, Table 2) (Homo sapiens, UniProt Q8IWQ3); settings: BRSK2
Method: as §1

[8] = target: each specific kinase (kinase selectivity panel, Table 2) (Homo sapiens, UniProt Q14680); settings: MELK
Method: as §1

[9] = target: each specific kinase (kinase selectivity panel, Table 2) (Homo sapiens, UniProt Q9P289); settings: MST4
Method: as §1

[10] = target: each specific kinase (kinase selectivity panel, Table 2) (Homo sapiens, UniProt Q16513); settings: PRK2
Method: as §1

[11] = target: each specific kinase (kinase selectivity panel, Table 2) (Homo sapiens, UniProt O43353); settings: RIPK2
Method: as §1

[12] = target: each specific kinase (kinase selectivity panel, Table 2) (Homo sapiens, UniProt P54753); settings: EPH-B3
Method: as §1

[13] = target: each specific kinase (kinase selectivity panel, Table 2) (Homo sapiens, UniProt P24941); settings: CDK2-Cyclin A
Method: as §1

[14] = target: each specific kinase (kinase selectivity panel, Table 2) (Homo sapiens, UniProt O15530); settings: PDK1
Method: as §1

[15] = target: each specific kinase (kinase selectivity panel, Table 2) (Homo sapiens, UniProt Q9HC98); settings: NEK6
Method: as §1

[16] = target: each specific kinase (kinase selectivity panel, Table 2) (Homo sapiens, UniProt P12931); settings: Src
Method: as §1

[17] = target: each specific kinase (kinase selectivity panel, Table 2) (Homo sapiens, UniProt Q13233); settings: MEKK1
Method: as §1

[18] = target: each specific kinase (kinase selectivity panel, Table 2) (Homo sapiens, UniProt P29317); settings: EPH-A2
Method: as §1

[19] = target: each specific kinase (kinase selectivity panel, Table 2) (Homo sapiens, UniProt P49841); settings: GSK3b
Method: as §1

[20] = target: each specific kinase (kinase selectivity panel, Table 2) (Homo sapiens, UniProt O14965); settings: Aurora A
Method: as §1

[21] = target: each specific kinase (kinase selectivity panel, Table 2) (Homo sapiens, UniProt O43318); settings: TAK1
Method: as §1

[22] = target: each specific kinase (kinase selectivity panel, Table 2) (Rattus norvegicus, UniProt Q62868); settings: ROCK 2
Method: as §1

[23] = target: each specific kinase (kinase selectivity panel, Table 2) (Homo sapiens, UniProt Q13188); settings: MST2
Method: as §1

[24] = target: each specific kinase (kinase selectivity panel, Table 2) (Homo sapiens, UniProt P11309); settings: PIM1
Method: as §1

[25] = target: each specific kinase (kinase selectivity panel, Table 2) (Homo sapiens, UniProt O96013); settings: PAK4
Method: as §1

[26] = target: each specific kinase (kinase selectivity panel, Table 2) (Homo sapiens, UniProt Q16539); settings: p38a MAPK
Method: as §1

[27] = target: each specific kinase (kinase selectivity panel, Table 2) (Homo sapiens, UniProt Q96GD4); settings: Aurora B
Method: as §1

[28] = target: each specific kinase (kinase selectivity panel, Table 2) (Homo sapiens, UniProt P06213); settings: IR
Method: as §1

[29] = target: each specific kinase (kinase selectivity panel, Table 2) (Homo sapiens, UniProt Q02750); settings: MKK1
Method: as §1

[30] = target: each specific kinase (kinase selectivity panel, Table 2) (Homo sapiens, UniProt Q15139); settings: PKD1
Method: as §1

[31] = target: each specific kinase (kinase selectivity panel, Table 2) (Homo sapiens, UniProt P06239); settings: Lck
Method: as §1

[32] = target: each specific kinase (kinase selectivity panel, Table 2) (Homo sapiens, UniProt Q13627); settings: DYRK1A
Method: as §1

[33] = target: each specific kinase (kinase selectivity panel, Table 2) (Homo sapiens, UniProt P04629); settings: TrkA
Method: as §1

[34] = target: each specific kinase (kinase selectivity panel, Table 2) (Homo sapiens, UniProt O96017); settings: CHK2
Method: as §1

Sequence of each specific kinase (kinase selectivity panel, Table 2) (Homo sapiens, UniProt P11309) (P11309 whole entry): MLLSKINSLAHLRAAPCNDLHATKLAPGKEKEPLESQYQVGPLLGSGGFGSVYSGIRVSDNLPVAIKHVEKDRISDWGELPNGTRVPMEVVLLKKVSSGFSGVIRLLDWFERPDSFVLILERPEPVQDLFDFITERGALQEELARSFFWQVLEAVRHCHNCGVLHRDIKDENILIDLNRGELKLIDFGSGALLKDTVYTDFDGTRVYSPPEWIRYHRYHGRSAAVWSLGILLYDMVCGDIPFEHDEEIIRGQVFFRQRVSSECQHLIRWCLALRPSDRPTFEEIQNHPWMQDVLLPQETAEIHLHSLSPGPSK
Sequence of each specific kinase (kinase selectivity panel, Table 2) (Rattus norvegicus, UniProt Q62868) (Q62868 whole entry): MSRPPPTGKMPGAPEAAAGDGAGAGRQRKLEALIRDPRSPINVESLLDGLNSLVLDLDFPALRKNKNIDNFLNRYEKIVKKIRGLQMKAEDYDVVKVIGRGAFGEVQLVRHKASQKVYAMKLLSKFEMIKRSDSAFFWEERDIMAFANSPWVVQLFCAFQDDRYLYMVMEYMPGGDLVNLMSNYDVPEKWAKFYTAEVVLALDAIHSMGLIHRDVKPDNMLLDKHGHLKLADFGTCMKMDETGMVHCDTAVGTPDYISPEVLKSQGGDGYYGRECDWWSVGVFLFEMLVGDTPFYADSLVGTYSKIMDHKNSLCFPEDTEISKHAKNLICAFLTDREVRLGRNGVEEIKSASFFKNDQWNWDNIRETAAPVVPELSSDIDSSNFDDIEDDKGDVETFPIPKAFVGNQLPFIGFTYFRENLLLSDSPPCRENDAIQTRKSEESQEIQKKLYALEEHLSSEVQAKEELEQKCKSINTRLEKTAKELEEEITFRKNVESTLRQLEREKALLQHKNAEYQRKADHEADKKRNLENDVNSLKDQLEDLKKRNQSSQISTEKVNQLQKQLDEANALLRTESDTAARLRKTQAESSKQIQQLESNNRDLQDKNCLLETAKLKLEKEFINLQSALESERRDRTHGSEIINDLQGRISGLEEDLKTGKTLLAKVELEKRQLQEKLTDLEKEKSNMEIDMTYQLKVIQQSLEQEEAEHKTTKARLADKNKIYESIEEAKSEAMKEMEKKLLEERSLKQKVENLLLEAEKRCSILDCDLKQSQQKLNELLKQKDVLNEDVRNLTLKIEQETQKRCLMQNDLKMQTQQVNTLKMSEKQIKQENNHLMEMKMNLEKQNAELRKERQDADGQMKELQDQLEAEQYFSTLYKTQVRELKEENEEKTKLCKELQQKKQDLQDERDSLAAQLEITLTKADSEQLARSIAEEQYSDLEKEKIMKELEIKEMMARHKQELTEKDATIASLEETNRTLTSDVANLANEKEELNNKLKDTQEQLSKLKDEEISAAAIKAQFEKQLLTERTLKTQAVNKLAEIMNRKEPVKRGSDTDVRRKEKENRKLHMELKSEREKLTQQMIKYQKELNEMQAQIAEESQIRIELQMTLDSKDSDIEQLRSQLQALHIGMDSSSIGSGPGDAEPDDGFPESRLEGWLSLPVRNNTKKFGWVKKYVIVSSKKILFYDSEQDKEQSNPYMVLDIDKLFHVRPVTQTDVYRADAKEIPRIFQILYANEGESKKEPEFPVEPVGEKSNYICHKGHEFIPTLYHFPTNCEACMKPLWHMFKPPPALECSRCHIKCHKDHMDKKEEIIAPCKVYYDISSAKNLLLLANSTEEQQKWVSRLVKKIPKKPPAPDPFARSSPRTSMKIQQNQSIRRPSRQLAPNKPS
Sequence of each specific kinase (kinase selectivity panel, Table 2) (Homo sapiens, UniProt Q13233) (Q13233 whole entry): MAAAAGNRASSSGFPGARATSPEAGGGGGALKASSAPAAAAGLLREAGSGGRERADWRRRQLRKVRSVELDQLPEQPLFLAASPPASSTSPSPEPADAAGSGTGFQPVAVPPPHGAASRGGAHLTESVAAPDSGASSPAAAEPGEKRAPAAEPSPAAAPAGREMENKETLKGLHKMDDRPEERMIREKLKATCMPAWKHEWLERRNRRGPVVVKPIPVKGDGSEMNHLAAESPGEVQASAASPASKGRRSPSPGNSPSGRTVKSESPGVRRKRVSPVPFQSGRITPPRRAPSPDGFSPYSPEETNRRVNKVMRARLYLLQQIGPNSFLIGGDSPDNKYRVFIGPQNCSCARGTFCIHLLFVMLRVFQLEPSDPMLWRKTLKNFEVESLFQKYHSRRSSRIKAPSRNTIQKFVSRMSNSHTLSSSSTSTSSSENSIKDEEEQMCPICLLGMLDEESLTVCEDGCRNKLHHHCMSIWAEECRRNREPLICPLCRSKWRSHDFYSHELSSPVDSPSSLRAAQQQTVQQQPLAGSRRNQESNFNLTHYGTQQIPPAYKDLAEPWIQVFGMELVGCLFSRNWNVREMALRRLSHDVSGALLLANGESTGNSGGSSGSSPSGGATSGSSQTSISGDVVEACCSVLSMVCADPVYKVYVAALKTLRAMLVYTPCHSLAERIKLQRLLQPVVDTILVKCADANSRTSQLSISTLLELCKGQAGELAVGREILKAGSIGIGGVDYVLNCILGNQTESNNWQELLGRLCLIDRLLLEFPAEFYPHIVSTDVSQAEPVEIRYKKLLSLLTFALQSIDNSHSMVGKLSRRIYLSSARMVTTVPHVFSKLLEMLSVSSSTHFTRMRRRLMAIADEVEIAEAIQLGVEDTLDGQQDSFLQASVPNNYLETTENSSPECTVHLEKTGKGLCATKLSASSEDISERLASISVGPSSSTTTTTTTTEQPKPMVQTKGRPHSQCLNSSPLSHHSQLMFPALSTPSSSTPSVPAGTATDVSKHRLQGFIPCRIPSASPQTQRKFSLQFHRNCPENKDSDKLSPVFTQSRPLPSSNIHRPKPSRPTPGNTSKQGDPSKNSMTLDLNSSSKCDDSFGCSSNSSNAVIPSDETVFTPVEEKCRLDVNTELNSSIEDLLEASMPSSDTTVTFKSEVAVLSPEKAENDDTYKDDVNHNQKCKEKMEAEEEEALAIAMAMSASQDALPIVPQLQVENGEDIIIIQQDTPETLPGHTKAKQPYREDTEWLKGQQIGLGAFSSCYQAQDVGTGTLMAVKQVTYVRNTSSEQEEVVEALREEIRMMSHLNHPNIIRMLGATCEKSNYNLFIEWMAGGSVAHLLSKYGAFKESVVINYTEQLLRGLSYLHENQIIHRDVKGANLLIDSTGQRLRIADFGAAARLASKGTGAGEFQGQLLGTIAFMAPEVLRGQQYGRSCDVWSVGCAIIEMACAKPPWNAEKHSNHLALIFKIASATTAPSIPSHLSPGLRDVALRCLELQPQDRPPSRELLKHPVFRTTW
Sequence of each specific kinase (kinase selectivity panel, Table 2) (Homo sapiens, UniProt P45983) (P45983 whole entry): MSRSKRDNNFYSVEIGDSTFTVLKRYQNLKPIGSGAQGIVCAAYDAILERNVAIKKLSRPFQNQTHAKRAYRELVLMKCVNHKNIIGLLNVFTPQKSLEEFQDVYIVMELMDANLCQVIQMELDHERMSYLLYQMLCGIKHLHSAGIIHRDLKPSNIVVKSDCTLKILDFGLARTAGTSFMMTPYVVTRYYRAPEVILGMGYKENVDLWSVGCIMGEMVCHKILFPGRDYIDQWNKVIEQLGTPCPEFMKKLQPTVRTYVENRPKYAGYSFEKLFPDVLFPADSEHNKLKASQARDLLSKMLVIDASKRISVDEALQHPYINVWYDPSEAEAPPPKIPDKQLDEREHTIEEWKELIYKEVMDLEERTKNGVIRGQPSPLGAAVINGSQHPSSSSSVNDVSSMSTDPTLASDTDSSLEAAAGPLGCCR
Sequence of each specific kinase (kinase selectivity panel, Table 2) (Homo sapiens, UniProt P06239) (P06239 whole entry): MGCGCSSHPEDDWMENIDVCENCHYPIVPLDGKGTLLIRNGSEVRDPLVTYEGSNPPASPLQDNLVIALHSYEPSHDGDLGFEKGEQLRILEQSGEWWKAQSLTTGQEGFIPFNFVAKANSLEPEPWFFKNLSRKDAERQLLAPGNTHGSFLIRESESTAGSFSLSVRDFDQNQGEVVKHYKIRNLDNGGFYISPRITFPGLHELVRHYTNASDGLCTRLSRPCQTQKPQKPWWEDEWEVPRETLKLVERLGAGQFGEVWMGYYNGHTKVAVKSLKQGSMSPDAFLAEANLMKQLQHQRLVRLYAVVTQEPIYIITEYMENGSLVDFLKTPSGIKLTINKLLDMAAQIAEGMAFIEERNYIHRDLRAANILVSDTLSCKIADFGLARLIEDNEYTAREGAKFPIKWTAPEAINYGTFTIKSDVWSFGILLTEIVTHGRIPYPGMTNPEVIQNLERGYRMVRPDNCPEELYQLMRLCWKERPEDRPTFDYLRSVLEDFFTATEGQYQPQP
Sequence of each specific kinase (kinase selectivity panel, Table 2) (Homo sapiens, UniProt Q14012) (Q14012 whole entry): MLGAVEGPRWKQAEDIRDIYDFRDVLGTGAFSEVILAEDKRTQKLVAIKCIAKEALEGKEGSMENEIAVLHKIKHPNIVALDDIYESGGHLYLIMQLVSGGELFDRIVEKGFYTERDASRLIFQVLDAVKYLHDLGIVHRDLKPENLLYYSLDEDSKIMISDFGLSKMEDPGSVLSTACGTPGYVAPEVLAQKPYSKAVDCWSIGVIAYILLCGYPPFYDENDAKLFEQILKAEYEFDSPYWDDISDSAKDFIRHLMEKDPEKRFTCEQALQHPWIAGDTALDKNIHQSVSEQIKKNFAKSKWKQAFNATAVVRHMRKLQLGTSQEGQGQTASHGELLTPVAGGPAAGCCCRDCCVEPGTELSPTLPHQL
Sequence of each specific kinase (kinase selectivity panel, Table 2) (Homo sapiens, UniProt Q9HC98) (Q9HC98 whole entry): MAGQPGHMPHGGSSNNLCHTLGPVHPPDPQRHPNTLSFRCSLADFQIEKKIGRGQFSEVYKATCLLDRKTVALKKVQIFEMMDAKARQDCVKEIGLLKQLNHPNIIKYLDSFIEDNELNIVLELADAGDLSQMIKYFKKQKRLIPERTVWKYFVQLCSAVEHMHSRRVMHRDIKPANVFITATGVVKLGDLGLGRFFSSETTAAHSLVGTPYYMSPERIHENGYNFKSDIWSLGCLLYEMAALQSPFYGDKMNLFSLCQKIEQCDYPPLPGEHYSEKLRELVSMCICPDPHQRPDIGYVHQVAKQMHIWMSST

Compound | percentage inhibition of CAMK1 [1] [percentage] | percentage inhibition of SRPK1 [2] [percentage] | percentage inhibition of MARK3 [3] [percentage] | percentage inhibition of CSK [4] [percentage] | percentage inhibition of MLK1 [5] [percentage] | percentage inhibition of JNK1 [6] [percentage] | percentage inhibition of BRSK2 [7] [percentage] | percentage inhibition of MELK [8] [percentage] | percentage inhibition of MST4 [9] [percentage] | percentage inhibition of PRK2 [10] [percentage] | percentage inhibition of RIPK2 [11] [percentage] | percentage inhibition of EPH-B3 [12] [percentage] | percentage inhibition of CDK2-Cyclin A [13] [percentage] | percentage inhibition of PDK1 [14] [percentage] | percentage inhibition of NEK6 [15] [percentage] | percentage inhibition of Src [16] [percentage] | percentage inhibition of MEKK1 [17] [percentage] | percentage inhibition of EPH-A2 [18] [percentage] | percentage inhibition of GSK3b [19] [percentage] | percentage inhibition of Aurora A [20] [percentage] | further results
O=C(CCc1n[nH]c2ccnc(NC3CCCCC3)c12)N1CCC[C@H](c2ccccc2)C1 [Example 172, 3-(4-Cyclohexylamino-1H-pyrazolo[4,3-c]pyridin-3-yl)-1-((R)-3-phenyl-piperidin-1-yl)-propan-1-one] | 14 | 17 | 18 | 11 | 13 | 17 | 0 | 5 | 10 | 16 | 0 | 3 | 0 | 0 | 1 | 6 | 7 | 0 | 5 | 0 | percentage inhibition of TAK1 [21]: 9 percentage; percentage inhibition of ROCK 2 [22]: 7 percentage; percentage inhibition of MST2 [23]: 10 percentage; percentage inhibition of PIM1 [24]: 0 percentage; percentage inhibition of PAK4 [25]: 24 percentage; percentage inhibition of p38a MAPK [26]: 6 percentage; percentage inhibition of Aurora B [27]: 15 percentage; percentage inhibition of IR [28]: 4 percentage; percentage inhibition of MKK1 [29]: 17 percentage; percentage inhibition of PKD1 [30]: 1 percentage; percentage inhibition of Lck [31]: 25 percentage; percentage inhibition of DYRK1A [32]: 27 percentage; percentage inhibition of TrkA [33]: 5 percentage; percentage inhibition of CHK2 [34]: 40 percentage
CC[C@H](C)Oc1nccc2[nH]nc(C)c12 [Example 121, 4-((S)-sec-Butoxy)-3-methyl-1H-pyrazolo[4,3-c]pyridine] | 5 | 21 | 12 | 6 | 19 | 7 | 13 | 61 | 23 | 39 | 1 | 6 | 61 | 13 | 6 | 0 | 0 | 8 | 25 | 46 | percentage inhibition of TAK1 [21]: 72 percentage; percentage inhibition of ROCK 2 [22]: 57 percentage; percentage inhibition of MST2 [23]: 55 percentage; percentage inhibition of PIM1 [24]: 15 percentage; percentage inhibition of PAK4 [25]: 26 percentage; percentage inhibition of p38a MAPK [26]: 0 percentage; percentage inhibition of Aurora B [27]: 0 percentage; percentage inhibition of IR [28]: 8 percentage; percentage inhibition of MKK1 [29]: 47 percentage; percentage inhibition of PKD1 [30]: 29 percentage; percentage inhibition of Lck [31]: 0 percentage; percentage inhibition of DYRK1A [32]: 27 percentage; percentage inhibition of TrkA [33]: 26 percentage; percentage inhibition of CHK2 [34]: 13 percentage
